Measured values reported in ChEMBL document CHEMBL6096664, “Discovery of novel KSP-targeting PROTACs with potent antitumor effects in vitro and in vivo” (Eur J Med Chem, 2025).

Experiments:
[1] = molecular target: Protein cereblon/Kinesin-like protein KIF11 (Homo sapiens, UniProt P52732+Q96SW2); assay: PROTAC activity at CRBN/KSP in human HCT-116 cells assessed as induction of KSP degradation at 500 nM incubated for 48 hrs by Western blot analysis relative to control; assay type: cell-based
HCT-116 [2] = assay: Antiproliferative activity against human HCT-116 cells assessed as inhibition of cell proliferation measured after 72 hrs by CCK8 assay; assay type: functional, cell-based; conditions: HCT-116, 72 h
HCT-116 [3] = assay: PROTAC activity at VHL-L/KSP in human HCT-116 cells assessed as induction of KSP degradation at 500 nM incubated for 48 hrs by Western blot analysis relative to control; assay type: cell-based
[4] = molecular target: T1, Kinesin-like protein KIF11 (Homo sapiens, UniProt P52732); assay: Inhibition of KSP (unknown origin) ATPase activity preincubated for 30 mins followed by ATP addition and measured after 15 mins by Kinase-Glo Plus reagent based luminescence analysis
T1 sequence (P52732 whole entry): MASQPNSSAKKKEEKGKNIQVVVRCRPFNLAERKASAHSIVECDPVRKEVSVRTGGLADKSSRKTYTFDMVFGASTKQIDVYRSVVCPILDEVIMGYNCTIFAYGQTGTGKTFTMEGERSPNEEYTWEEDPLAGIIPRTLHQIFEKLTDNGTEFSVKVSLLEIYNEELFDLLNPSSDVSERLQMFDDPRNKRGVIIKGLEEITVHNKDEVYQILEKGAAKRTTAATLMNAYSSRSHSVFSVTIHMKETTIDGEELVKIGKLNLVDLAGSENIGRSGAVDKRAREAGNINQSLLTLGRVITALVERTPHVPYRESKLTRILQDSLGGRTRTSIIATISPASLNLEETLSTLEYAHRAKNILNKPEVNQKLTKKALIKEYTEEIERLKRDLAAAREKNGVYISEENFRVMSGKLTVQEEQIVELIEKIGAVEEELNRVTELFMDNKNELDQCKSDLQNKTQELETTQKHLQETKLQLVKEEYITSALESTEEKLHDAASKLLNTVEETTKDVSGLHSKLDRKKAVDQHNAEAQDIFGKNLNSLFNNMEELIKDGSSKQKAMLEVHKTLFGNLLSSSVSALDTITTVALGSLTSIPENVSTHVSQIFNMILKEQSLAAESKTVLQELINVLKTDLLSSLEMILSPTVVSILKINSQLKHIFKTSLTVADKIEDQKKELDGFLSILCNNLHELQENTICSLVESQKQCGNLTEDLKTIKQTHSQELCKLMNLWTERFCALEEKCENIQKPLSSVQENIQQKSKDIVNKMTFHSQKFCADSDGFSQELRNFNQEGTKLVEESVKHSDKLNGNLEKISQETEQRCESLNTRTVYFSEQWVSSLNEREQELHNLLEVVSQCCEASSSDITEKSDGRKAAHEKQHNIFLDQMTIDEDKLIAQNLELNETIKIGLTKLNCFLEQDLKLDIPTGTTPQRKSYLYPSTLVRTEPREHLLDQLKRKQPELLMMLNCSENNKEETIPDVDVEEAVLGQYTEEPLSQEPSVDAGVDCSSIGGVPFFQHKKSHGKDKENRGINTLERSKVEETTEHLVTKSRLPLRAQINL

A549 = assay: Antiproliferative activity against human A549 cells assessed as inhibition of cell proliferation measured after 72 hrs by CCK8 assay; assay type: functional, cell-based; conditions: A549, 72 h
HCT-116 [5] = assay: Induction of cell cycle arrest in human HCT-116 cells assessed as accumulation of cells at G1 phase at 10 nM incubated for 24 hrs by RNase A/propidium iodide staining based flow cytometric analysis (reference value: 93.11 %); assay type: functional
HCT-116 [6] = assay: Induction of apoptosis in human HCT-116 cells assessed as necrotic cells at 100 nM incubated for 48 hrs by Annexin V-FITC/PI staining based flow cytometry analysis (reference value: 1.31 %); assay type: functional
HCT-116 [7] = assay: Induction of apoptosis in human HCT-116 cells assessed as early apoptotic cells at 100 nM incubated for 48 hrs by Annexin V-FITC/PI staining based flow cytometry analysis (reference value: 3.02 %); assay type: functional
HCT-116 [8] = assay: Induction of cell cycle arrest in human HCT-116 cells assessed as accumulation of cells at G2/M phase at 10 nM incubated for 24 hrs by RNase A/propidium iodide staining based flow cytometric analysis (reference value: 4.05 %); assay type: functional
HCT-116 [9] = assay: Induction of cell cycle arrest in human HCT-116 cells assessed as accumulation of cells at S phase at 10 nM incubated for 24 hrs by RNase A/propidium iodide staining based flow cytometric analysis (reference value: 2.84 %); assay type: functional
MCF7 = assay: Antiproliferative activity against human MCF7 cells assessed as inhibition of cell proliferation measured after 72 hrs by CCK8 assay; assay type: functional, cell-based; conditions: MCF7, 72 h
HCT-116 [10] = assay: Induction of apoptosis in human HCT-116 cells assessed as late apoptotic cells at 100 nM incubated for 48 hrs by Annexin V-FITC/PI staining based flow cytometry analysis (reference value: 1.36 %); assay type: functional
MDA-MB-231 = assay: Antiproliferative activity against human MDA-MB-231 cells assessed as inhibition of cell proliferation measured after 72 hrs by CCK8 assay; assay type: functional, cell-based; conditions: MDA-MB-231, 72 h
HCT-116 [11] = assay: Induction of apoptosis in human HCT-116 cells assessed as viable cells at 100 nM incubated for 48 hrs by Annexin V-FITC/PI staining based flow cytometry analysis (reference value: 94.31 %); assay type: functional; conditions: read-out: Activity

Protein cereblon/Kinesin-like protein KIF11, sequence (Q96SW2 whole entry, looked up, one chain of several): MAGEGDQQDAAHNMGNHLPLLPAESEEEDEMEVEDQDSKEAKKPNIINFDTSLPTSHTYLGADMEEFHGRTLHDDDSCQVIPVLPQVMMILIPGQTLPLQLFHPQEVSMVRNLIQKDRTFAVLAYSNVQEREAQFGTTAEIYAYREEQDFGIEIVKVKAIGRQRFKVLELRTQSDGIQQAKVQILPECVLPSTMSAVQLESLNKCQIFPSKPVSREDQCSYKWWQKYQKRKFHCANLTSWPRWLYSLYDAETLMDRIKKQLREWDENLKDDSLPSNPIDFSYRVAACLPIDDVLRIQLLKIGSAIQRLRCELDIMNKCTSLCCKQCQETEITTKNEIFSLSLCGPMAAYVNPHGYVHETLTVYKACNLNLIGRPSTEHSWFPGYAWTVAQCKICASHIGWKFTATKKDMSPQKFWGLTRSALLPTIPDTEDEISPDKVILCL

Row | Compound | Activity [1] [%] | IC50 (HCT-116 [2]) [nM] | further results
1 | COc1ccc(C2(SC[C@H](N)C(=O)NCCCCCCCCCCNc3cccc4c3C(=O)N(C3CCC(=O)NC3=O)C4=O)c3ccccc3C=Cc3ccccc32)cc1 (stereo partly specified) | 60.1 | 42.3 | 
2 | COc1ccc(C2(SC[C@H](N)C(=O)NCCOCCOCCC(=O)N[C@H](C(=O)N3C[C@H](O)C[C@H]3C(=O)NCc3ccc(-c4scnc4C)cc3)C(C)(C)C)c3ccccc3C=Cc3ccccc32)cc1 |  | 158 | Activity (HCT-116 [3]): 34.5%
3 | COc1ccc(C2(SC[C@H](N)C(=O)NCCOCCOCCOCCC(=O)N[C@H](C(=O)N3C[C@H](O)C[C@H]3C(=O)NCc3ccc(-c4scnc4C)cc3)C(C)(C)C)c3ccccc3C=Cc3ccccc32)cc1 |  | 165 | Activity (HCT-116 [3]): 32.1%
4 | COc1ccc(C2(SC[C@H](N)C(=O)NCCNC(=O)COc3cccc4c3C(=O)N(C3CCC(=O)NC3=O)C4=O)c3ccccc3C=Cc3ccccc32)cc1 (stereo partly specified) | 18.5 | 313 | 
5 | COc1ccc(C2(SC[C@H](N)C(=O)NCCCCCCCCCCNC(=O)COc3cccc4c3C(=O)N(C3CCC(=O)NC3=O)C4=O)c3ccccc3C=Cc3ccccc32)cc1 (stereo partly specified) | 68.3 | 31.6 | 
6 | COc1ccc(C2(SC[C@H](N)C(=O)NCCOCCOCCNc3ccc4c(c3)C(=O)N(C3CCC(=O)NC3=O)C4=O)c3ccccc3C=Cc3ccccc32)cc1 (stereo partly specified) | 24.1 | 235 | 
7 | COc1ccc(C2(SC[C@H](N)C(=O)NCCCNC(=O)COc3cccc4c3C(=O)N(C3CCC(=O)NC3=O)C4=O)c3ccccc3C=Cc3ccccc32)cc1 (stereo partly specified) | 42.1 | 96.9 | 
8 | COc1ccc(C2(SC[C@H](N)C(=O)NCCOCCNc3cccc4c3C(=O)N(C3CCC(=O)NC3=O)C4=O)c3ccccc3C=Cc3ccccc32)cc1 (stereo partly specified) | 12.8 | 366 | 
9 | COc1ccc(C2(SC[C@H](N)C(=O)NCCOCCOCCNC(=O)COc3cccc4c3C(=O)N(C3CCC(=O)NC3=O)C4=O)c3ccccc3C=Cc3ccccc32)cc1 (stereo partly specified) | 53.2 | 42.2 | 
10 | COc1ccc(C2(SC[C@H](N)C(=O)NCCCCNc3ccc4c(c3)C(=O)N(C3CCC(=O)NC3=O)C4=O)c3ccccc3C=Cc3ccccc32)cc1 (stereo partly specified) | 10.6 | 360 | 
11 | COc1ccc(C2(SC[C@H](N)C(=O)NCCOCCOCCOCCNc3cccc4c3C(=O)N(C3CCC(=O)NC3=O)C4=O)c3ccccc3C=Cc3ccccc32)cc1 (stereo partly specified) | 43.5 | 81.3 | 
12 | COc1ccc(C2(SC[C@H](N)C(=O)NCCOCCOCCOCCNc3ccc4c(c3)C(=O)N(C3CCC(=O)NC3=O)C4=O)c3ccccc3C=Cc3ccccc32)cc1 (stereo partly specified) | 40.6 | 95.4 | 
13 | COc1ccc(C2(SC[C@H](N)C(=O)NCCOCCOCCNc3cccc4c3C(=O)N(C3CCC(=O)NC3=O)C4=O)c3ccccc3C=Cc3ccccc32)cc1 (stereo partly specified) | 29.1 | 184 | 
14 | COc1ccc(C2(SC[C@H](N)C(=O)NCCCCCCNc3ccc4c(c3)C(=O)N(C3CCC(=O)NC3=O)C4=O)c3ccccc3C=Cc3ccccc32)cc1 (stereo partly specified) | 35.6 | 145 | 
15 | COc1ccc(C2(SC[C@H](N)C(=O)NCCOCCOCCOCCNC(=O)COc3cccc4c3C(=O)N(C3CCC(=O)NC3=O)C4=O)c3ccccc3C=Cc3ccccc32)cc1 (stereo partly specified) | 28.3 | 206 | 
16 | COc1ccc(C2(SC[C@H](N)C(=O)NCCCCCCCCC(=O)N[C@H](C(=O)N3C[C@H](O)C[C@H]3C(=O)NCc3ccc(-c4scnc4C)cc3)C(C)(C)C)c3ccccc3C=Cc3ccccc32)cc1 |  | 262 | Activity (HCT-116 [3]): 18.3%
17 | COc1ccc(C2(SC[C@H](N)C(=O)NCCCCCCNc3cccc4c3C(=O)N(C3CCC(=O)NC3=O)C4=O)c3ccccc3C=Cc3ccccc32)cc1 (stereo partly specified) | 42.3 | 93.4 | 
18 | COc1ccc(C2(SC[C@H](N)C(=O)NCCCCC(=O)N[C@H](C(=O)N3C[C@H](O)C[C@H]3C(=O)NCc3ccc(-c4scnc4C)cc3)C(C)(C)C)c3ccccc3C=Cc3ccccc32)cc1 |  | 130 | Activity (HCT-116 [3]): 38.3%
19 | COc1ccc(C2(SC[C@H](N)C(=O)NCCCCCCCCCCNc3ccc4c(c3)C(=O)N(C3CCC(=O)NC3=O)C4=O)c3ccccc3C=Cc3ccccc32)cc1 (stereo partly specified) | 53.9 | 51.3 | 
20 | COc1ccc(C2(SC[C@H](N)C(=O)NCCOCCNc3ccc4c(c3)C(=O)N(C3CCC(=O)NC3=O)C4=O)c3ccccc3C=Cc3ccccc32)cc1 (stereo partly specified) | 25.7 | 203 | 
21 | COc1ccc(C2(SC[C@H](N)C(=O)NCCCCNc3cccc4c3C(=O)N(C3CCC(=O)NC3=O)C4=O)c3ccccc3C=Cc3ccccc32)cc1 (stereo partly specified) | 11.2 | 247 | 
22 | COc1ccc(C2(SC[C@H](N)C(=O)NCCCCCCCCNc3ccc4c(c3)C(=O)N(C3CCC(=O)NC3=O)C4=O)c3ccccc3C=Cc3ccccc32)cc1 (stereo partly specified) | 54.3 | 53.8 | 
23 | COc1ccc(C2(SC[C@H](N)C(=O)NCCOCCNC(=O)COc3cccc4c3C(=O)N(C3CCC(=O)NC3=O)C4=O)c3ccccc3C=Cc3ccccc32)cc1 (stereo partly specified) | 60.1 | 37.4 | 
24 | COc1ccc(C2(SC[C@H](N)C(=O)NCCCCCCNC(=O)COc3cccc4c3C(=O)N(C3CCC(=O)NC3=O)C4=O)c3ccccc3C=Cc3ccccc32)cc1 (stereo partly specified) | 52.5 | 52.9 | 
25 | COc1ccc(C2(SC[C@H](N)C(=O)NCCCCCCC(=O)N[C@H](C(=O)N3C[C@H](O)C[C@H]3C(=O)NCc3ccc(-c4scnc4C)cc3)C(C)(C)C)c3ccccc3C=Cc3ccccc32)cc1 |  | 181 | Activity (HCT-116 [3]): 25.2%
26 | COc1ccc(C2(SC[C@H](N)C(=O)NCCCCCCCCNc3cccc4c3C(=O)N(C3CCC(=O)NC3=O)C4=O)c3ccccc3C=Cc3ccccc32)cc1 (stereo partly specified) | 61.5 | 40.8 | 
27 | COc1ccc(C2(SC[C@H](N)C(=O)NCCCCCNC(=O)COc3cccc4c3C(=O)N(C3CCC(=O)NC3=O)C4=O)c3ccccc3C=Cc3ccccc32)cc1 (stereo partly specified) | 46.6 | 66.8 | 
28 | COc1ccc(C2(SC[C@H](N)C(=O)O)c3ccccc3C=Cc3ccccc32)cc1 | 0 | 8.5 | IC50 [4]: 27.6 nM; IC50 (A549): 262 nM; Activity (HCT-116 [5]): 66.9%; Activity (HCT-116 [6]): 14.06%; Activity (HCT-116 [7]): 31.49%; Activity (HCT-116 [8]): 21.03%; Activity (HCT-116 [9]): 12.07%; IC50 (MCF7): 17.5 nM; Activity (HCT-116 [10]): 23.79%; IC50 (MDA-MB-231): 12.1 nM; viability at 0.1 µM (HCT-116 [11]): 30.7%
29 | COc1ccc(C2(SC[C@H](N)C(=O)NCCCCNC(=O)COc3cccc4c3C(=O)N(C3CCC(=O)NC3=O)C4=O)c3ccccc3C=Cc3ccccc32)cc1 (stereo partly specified) | 43.6 | 83.7 | 
30 | COc1ccc(C2(SC[C@H](N)C(=O)NCCOCCC(=O)N[C@H](C(=O)N3C[C@H](O)C[C@H]3C(=O)NCc3ccc(-c4scnc4C)cc3)C(C)(C)C)c3ccccc3C=Cc3ccccc32)cc1 |  | 110 | Activity (HCT-116 [3]): 42.2%
